Measurements from patent US4684664A, “Derivatives of β-(4-isocyano-1,2,3,4-diepoxycyclopentyl) acrylic acid” (Kureha Kagaku Kogyo Kabushiki Kaisha, priority 1984, dated 1987).
Converted amounts (≈) assume the structure as drawn.

How the values were obtained:
Assay type in all cases: cell-based
[1] = tested on: Streptococcus pyogenes Cook; assay: Antibacterial activity, agar-dilution MIC, organism No. 4; details: Streptococcus pyogenes; Organism No. 4, bouillon-agar; read-out: Minimum Inhibitory Concentration
Method in brief: (§1)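 Endpoint: MIC in μg/ml of culture medium. Method: agar dilution. Medium: bouillon agar.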

[2] = tested on: Bacillus subtilis ATCC 6633; assay: Antibacterial activity, agar-dilution MIC, organism No. 14; details: Bacillus subtilis, ATCC6633; Organism No. 14, bouillon-agar; read-out: Minimum Inhibitory Concentration
Method in brief: as §1

[3] = tested on: Salmonella enteritidis G 14; assay: Antibacterial activity, agar-dilution MIC, organism No. 12; details: Salmonella enterica, ENTERITIDIS; Organism No. 12, bouillon-agar; read-out: Minimum Inhibitory Concentration
Method in brief: as §1

[4] = tested on: Staphylococcus aureus MS 353; assay: Antibacterial activity, agar-dilution MIC, organism No. 3; details: Staphylococcus aureus, MS353; Organism No. 3, bouillon-agar; read-out: Minimum Inhibitory Concentration
Method in brief: as §1

[5] = tested on: Mycoplasma pneumoniae IID817; assay: Antimycoplasmal activity, MIC by phenol red colour change, organism No. 28; details: Mycoplasma, IID817; Organism No. 28, PPLO broth + 1% glucose, 37° C.; read-out: Minimum Inhibitory Concentration (MIC)
Procedure: Mycoplasma pneumoniae IID817 was used as the test microorganism in a culture medium prepared by adding 1% of glucose to "PPLO broth (manufactured by Difco Co.) liquid culture medium" at 37° C. with phenol red as an indicator, thereby culturing the test microorganism.

[6] = tested on: Proteus mirabilis IFO 3849; assay: Antibacterial activity, agar-dilution MIC, organism No. 19; details: Proteus mirabilis, IFO3849; Organism No. 19, bouillon-agar; read-out: Minimum Inhibitory Concentration
Method in brief: as §1

[7] = tested on: Streptococcus faecium IFO 3826; assay: Antibacterial activity, agar-dilution MIC, organism No. 27; details: Enterococcus faecium, IFO3826; Organism No. 27, bouillon-agar; read-out: Minimum Inhibitory Concentration
Method in brief: as §1

[8] = tested on: Micrococcus luteus ATCC 9341; assay: Antibacterial activity, agar-dilution MIC, organism No. 25; details: Micrococcus luteus, ATCC9341; Organism No. 25, bouillon-agar; read-out: Minimum Inhibitory Concentration
Method in brief: as §1

[9] = tested on: Pseudomonas aeruginosa PAO 1; assay: Antibacterial activity, agar-dilution MIC, organism No. 17; details: Pseudomonas aeruginosa, PAO1; Organism No. 17, bouillon-agar; read-out: Minimum Inhibitory Concentration
Method in brief: as §1

[10] = tested on: Proteus vulgaris OX-19; assay: Antibacterial activity, agar-dilution MIC, organism No. 20; details: Proteus vulgaris, OX19; Organism No. 20, bouillon-agar; read-out: Minimum Inhibitory Concentration
Method in brief: as §1

[11] = tested on: Proteus vulgaris HX-19; assay: Antibacterial activity, agar-dilution MIC, organism No. 21; details: Proteus vulgaris, HX19; Organism No. 21, bouillon-agar; read-out: Minimum Inhibitory Concentration
Method in brief: as §1

[12] = tested on: Staphylococcus aureus FDA 209PJc-1; assay: Antibacterial activity, agar-dilution MIC, organism No. 1; details: Staphylococcus aureus, FDA209PJC1; Organism No. 1, bouillon-agar; read-out: Minimum Inhibitory Concentration
Method in brief: as §1

[13] = tested on: Staphylococcus aureus Terajima; assay: Antibacterial activity, agar-dilution MIC, organism No. 2; details: Staphylococcus aureus; Organism No. 2, bouillon-agar; read-out: Minimum Inhibitory Concentration
Method in brief: as §1

[14] = tested on: Streptococcus pyogenes IFO 3340; assay: Antibacterial activity, agar-dilution MIC, organism No. 26; details: Streptococcus pyogenes, IFO3340; Organism No. 26, bouillon-agar; read-out: Minimum Inhibitory Concentration
Method in brief: as §1

[15] = tested on: Aspergillus niger IFO 6342; assay: Antifungal activity, agar-dilution MIC, organism No. 30; details: Aspergillus niger, IFO6342; Organism No. 30, bouillon-agar; read-out: Minimum Inhibitory Concentration
Method in brief: as §1

[16] = tested on: Salmonella typhimurium IID 971; assay: Antibacterial activity, agar-dilution MIC, organism No. 8; details: Salmonella enterica; Organism No. 8, bouillon-agar; read-out: Minimum Inhibitory Concentration
Method in brief: as §1

[17] = tested on: Pseudomonas aeruginosa IFO 3445; assay: Antibacterial activity, agar-dilution MIC, organism No. 15; details: Pseudomonas aeruginosa, IFO3445; Organism No. 15, bouillon-agar; read-out: Minimum Inhibitory Concentration
Method in brief: as §1

[18] = tested on: Escherichia coli NIHJ-JC-2; assay: Antibacterial activity, agar-dilution MIC, organism No. 5; details: Escherichia coli, NIHJJC2; Organism No. 5, bouillon-agar; read-out: Minimum Inhibitory Concentration
Method in brief: as §1

[19] = tested on: Candida albicans IAM 4905; assay: Antifungal activity, agar-dilution MIC, organism No. 29; details: Candida albicans, IAM4905; Organism No. 29, bouillon-agar; read-out: Minimum Inhibitory Concentration
Method in brief: as §1

[20] = tested on: Proteus rettgeri IFO 3850; assay: Antibacterial activity, agar-dilution MIC, organism No. 22; details: Providencia rettgeri, IFO3850; Organism No. 22, bouillon-agar; read-out: Minimum Inhibitory Concentration
Method in brief: as §1

[21] = tested on: Salmonella shottmuelleri 8006; assay: Antibacterial activity, agar-dilution MIC, organism No. 11; details: Salmonella, 8006; Organism No. 11, bouillon-agar; read-out: Minimum Inhibitory Concentration
Method in brief: as §1

[22] = tested on: Klebsiella pneumoniae PCI-602; assay: Antibacterial activity, agar-dilution MIC, organism No. 7; details: Klebsiella pneumoniae, PCI602; Organism No. 7, bouillon-agar; read-out: Minimum Inhibitory Concentration
Method in brief: as §1

[23] = tested on: Proteus morganii IFO 3848; assay: Antibacterial activity, agar-dilution MIC, organism No. 18; details: Morganella morganii, IFO3848; Organism No. 18, bouillon-agar; read-out: Minimum Inhibitory Concentration
Method in brief: as §1

[24] = tested on: Salmonella typhi 901; assay: Antibacterial activity, agar-dilution MIC, organism No. 9; details: Salmonella enterica, TYPHI, read-out: Minimum Inhibitory Concentration
Method in brief: as §1

[25] = tested on: Enterobacter aerogenes ATCC 13048; assay: Antibacterial activity, agar-dilution MIC, organism No. 23; details: Klebsiella aerogenes, ATCC13048; Organism No. 23, bouillon-agar; read-out: Minimum Inhibitory Concentration
Method in brief: as §1

[26] = tested on: Salmonella paratyphi-A 1015; assay: Antibacterial activity, agar-dilution MIC, organism No. 10; details: Salmonella enterica, PARATYPHI, read-out: Minimum Inhibitory Concentration
Method in brief: as §1

[27] = tested on: Enterobacter cloacae 963; assay: Antibacterial activity, agar-dilution MIC, organism No. 24; details: Enterobacter cloacae, 963; Organism No. 24, bouillon-agar; read-out: Minimum Inhibitory Concentration
Method in brief: as §1

[28] = tested on: Escherichia coli K12 C600 IAM 1264; assay: Antibacterial activity, agar-dilution MIC, organism No. 6; details: Escherichia coli, IAM1264; Organism No. 6, bouillon-agar; read-out: Minimum Inhibitory Concentration
Method in brief: as §1

[29] = tested on: Pseudomonas aeruginosa NCTC 10490; assay: Antibacterial activity, agar-dilution MIC, organism No. 16; details: Pseudomonas aeruginosa, NCTC10490; Organism No. 16, bouillon-agar; read-out: Minimum Inhibitory Concentration
Method in brief: as §1

[30] = tested on: Serratia marcescens IAM 1184; assay: Antibacterial activity, agar-dilution MIC, organism No. 13; details: Serratia marcescens, IAM1184; Organism No. 13, bouillon-agar; read-out: Minimum Inhibitory Concentration
Method in brief: as §1

SMILES | MIC [1] | MIC [2] | MIC [3] | MIC [4] | MIC [5] | MIC [6] | MIC [7] | MIC [8] | MIC [9] | MIC [10] | MIC [11] | MIC [12] | MIC [13] | MIC [14] | MIC [15] | MIC [16] | MIC [17] | MIC [18] | MIC [19] | MIC [20] | other results
[C-]#[N+]C12CC3(/C=C/C(=O)OC)OC3C1O2 (stereo not drawn) [Compound No. 1] | 200 µg/mL (≈ 965 µM) | 50 µg/mL (≈ 241 µM) | 6.25 µg/mL (≈ 30.2 µM) | 6.25 µg/mL (≈ 30.2 µM) | < 0.2 µg/mL | 6.25 µg/mL (≈ 30.2 µM) | 12.5 µg/mL (≈ 60.3 µM) | 6.25 µg/mL (≈ 30.2 µM) | > 200 µg/mL | 6.25 µg/mL (≈ 30.2 µM) | 0.2 µg/mL (≈ 0.965 µM) | 12.5 µg/mL (≈ 60.3 µM) | 12.5 µg/mL (≈ 60.3 µM) | 100 µg/mL (≈ 483 µM) | 12.5 µg/mL (≈ 60.3 µM) | 12.5 µg/mL (≈ 60.3 µM) | > 200 µg/mL | 12.5 µg/mL (≈ 60.3 µM) | 6.25 µg/mL (≈ 30.2 µM) | 25 µg/mL (≈ 121 µM) | MIC [21]: 6.25 µg/mL (≈ 30.2 µM); MIC [22]: 6.25 µg/mL (≈ 30.2 µM); MIC [23]: 6.25 µg/mL (≈ 30.2 µM); MIC [24]: 3.13 µg/mL (≈ 15.1 µM); MIC [25]: > 200 µg/mL; MIC [26]: 6.25 µg/mL (≈ 30.2 µM); MIC [27]: 25 µg/mL (≈ 121 µM); MIC [28]: 12.5 µg/mL (≈ 60.3 µM); MIC [29]: > 200 µg/mL; MIC [30]: 200 µg/mL (≈ 965 µM)
[C-]#[N+]C12CC3(/C=C/C(=O)ON4C(=O)CCC4=O)OC3C1O2 (stereo not drawn) [Compound No. 9] | 100 µg/mL (≈ 345 µM) | 200 µg/mL (≈ 689 µM) | 50 µg/mL (≈ 172 µM) | 50 µg/mL (≈ 172 µM) | 6.25 µg/mL | 200 µg/mL (≈ 689 µM) | 50 µg/mL (≈ 172 µM) | 25 µg/mL (≈ 86.1 µM) | > 200 µg/mL | 200 µg/mL (≈ 689 µM) | 25 µg/mL (≈ 86.1 µM) | 50 µg/mL (≈ 172 µM) | 50 µg/mL (≈ 172 µM) | 100 µg/mL (≈ 345 µM) | > 100 µg/mL | 50 µg/mL (≈ 172 µM) | > 200 µg/mL | 50 µg/mL (≈ 172 µM) | > 100 µg/mL | > 200 µg/mL | MIC [21]: 50 µg/mL (≈ 172 µM); MIC [22]: 200 µg/mL (≈ 689 µM); MIC [23]: 50 µg/mL (≈ 172 µM); MIC [24]: 50 µg/mL (≈ 172 µM); MIC [25]: > 200 µg/mL; MIC [26]: 50 µg/mL (≈ 172 µM); MIC [27]: > 200 µg/mL; MIC [28]: 50 µg/mL (≈ 172 µM); MIC [29]: > 200 µg/mL; MIC [30]: 200 µg/mL (≈ 689 µM)
[C-]#[N+]C12CC3(/C=C/C(=O)NC4CCCCC4)OC3C1O2 (stereo not drawn) [compound 20] | 6.25 µg/mL (≈ 22.8 µM) | 50 µg/mL (≈ 182 µM) | 12.5 µg/mL (≈ 45.6 µM) | 1.56 µg/mL (≈ 5.69 µM) | < 0.2 µg/mL | > 200 µg/mL | 12.5 µg/mL (≈ 45.6 µM) | < 0.05 µg/mL | > 200 µg/mL | 0.78 µg/mL (≈ 2.84 µM) | 0.1 µg/mL (≈ 0.365 µM) | 1.56 µg/mL (≈ 5.69 µM) | 12.5 µg/mL (≈ 45.6 µM) | 6.25 µg/mL (≈ 22.8 µM) | 6.25 µg/mL (≈ 22.8 µM) | 100 µg/mL (≈ 365 µM) | > 200 µg/mL | > 200 µg/mL | 1.56 µg/mL (≈ 5.69 µM) | > 200 µg/mL | MIC [21]: 3.13 µg/mL (≈ 11.4 µM); MIC [22]: 0.39 µg/mL (≈ 1.42 µM); MIC [23]: 0.78 µg/mL (≈ 2.84 µM); MIC [24]: 6.25 µg/mL (≈ 22.8 µM); MIC [25]: > 200 µg/mL; MIC [26]: 6.25 µg/mL (≈ 22.8 µM); MIC [27]: > 200 µg/mL; MIC [28]: > 200 µg/mL; MIC [29]: > 200 µg/mL; MIC [30]: > 200 µg/mL
[C-]#[N+]C12CC3(/C=C/C(=O)Nc4ccc(C(=O)c5ccccc5)cc4)OC3C1O2 (stereo not drawn) [compound 79] | 3.13 µg/mL (≈ 8.41 µM) | 1.56 µg/mL (≈ 4.19 µM) | > 200 µg/mL | 0.39 µg/mL (≈ 1.05 µM) | < 0.2 µg/mL | > 200 µg/mL | 0.78 µg/mL (≈ 2.09 µM) | > 200 µg/mL | > 200 µg/mL | 1.56 µg/mL (≈ 4.19 µM) | 1.56 µg/mL (≈ 4.19 µM) | 0.39 µg/mL (≈ 1.05 µM) | 0.78 µg/mL (≈ 2.09 µM) | 0.78 µg/mL (≈ 2.09 µM) | 3.13 µg/mL (≈ 8.41 µM) | > 200 µg/mL | > 200 µg/mL | > 200 µg/mL | 0.39 µg/mL (≈ 1.05 µM) | > 200 µg/mL | MIC [21]: 6.25 µg/mL (≈ 16.8 µM); MIC [22]: 3.13 µg/mL (≈ 8.41 µM); MIC [23]: 6.25 µg/mL (≈ 16.8 µM); MIC [24]: 200 µg/mL (≈ 537 µM); MIC [25]: > 200 µg/mL; MIC [26]: 3.13 µg/mL (≈ 8.41 µM); MIC [27]: > 200 µg/mL; MIC [28]: > 200 µg/mL; MIC [29]: > 200 µg/mL; MIC [30]: > 200 µg/mL
